Laboratory results from patent publication US5756683A, “Immunological detection method” (Novartis Finance Corporation, priority 1991, dated 1998).

Target: MAb 4197-70-12
Assay: two-step competitive ELISA; inhibition of MAb binding to carrier-bound antigen (cross-reactivity)
Design: species or system mouse (Balb/c)
Conditions: for I50 (inhibitor concentration that reduces the ELISA signal by 50% in comparison with the control): competitive ELISA; for cross-reactivity: (antigen conc. for 50% inhibition/concentration of the antigen analog for 50% inhibition) × 100: relative to compound of formula (II) = 100
Procedure: [antigen concentration for 50% inhibition (I50)/concentration of the
antigen analogs for 50% inhibition (I50)]×100.
The I50 value can be determined, for example, by means of a competitive ELISA assay (see Example 8).
The detection of a compound of formula (II) can be effected by means of a two-step competitive ELISA test.
BSA-conjugated hapten, prepared in accordance with Example 1.2.1, in a 50 mM sodium carbonate buffer (pH 9.6) (200 ng of BSA-conjugated hapten/100 μl of 50 mM sodium carbonate buffer) is first of all adsorbed on microtitre plates (for example Dynatech, type M 129A) and incubated overnight at a temperature of 4° C.
The plates are then washed five times with PBS buffer enriched with 0.1% (v/v) polysorbate 20 (Tween 20) (PBS Tween).
The remaining free binding sites of the solid carrier material are then blocked by the addition of PBS-BSA in the form of a 1% (w/v) solution. After incubation for two hours at 22° C. the plates are washed again with PBS Tween (0.1%).
50 μl of the supernatant of the previously cloned hybridoma cells (in a dilution of from 1:1000 to 1:2000) or 50 μl of the previously purified monoclonal antibodies (40-120 ng/ml) are incubated a) with 950 μl of a standard solution containing an increasing amount of antigen [compound of formula (II)] or of antigen analog, b) with antigen-containing water samples or c) with antigen-containing soil extracts. [All dilutions are carried out in PBS Tween (0.1%)].
After an incubation period of 1 hour at room temperature (22° C.), 200 μl of the antigen/antibody mixture are added to each well in the microtitre plate and the whole batch is incubated for a further one hour. The wells are then washed five times with PBS Tween (0.1%) and charged with 100 μl/well of goat anti-mouse IgG antibody that is conjugated to alkaline phosphatase (dilution 1:1500), and incubated for a period of 1.5 hours.
After washing again, 150 μl/well of the substrate p-nitrophenyl phosphate dissolved in 1 mg/ml of diethanolamine buffer (1 mM, pH 9.8, enriched with 0.5 mM MgCl2 ×6H2 O) are added to the wells.
The intensity of the colour reaction that has occurred is determined at a wavelength of 405 nm. […] All the samples are determined in triplicate.
In order to determine the amount of antigen [[…]] present in a sample, first of all a calibration curve is produced, B/Bo×100 being plotted against the concentration of inhibitor. (Bo represents the absorption capacity measured without the addition of an antigen inhibitor to the antibody, and B is the absorption capacity when antigen inhibitors at various concentrations are added). The I50 value indicates the concentration of the antigen at which the binding of antibody to the solid phase is inhibited by 50%. The I50 value is determined using an ENZFITTER (Leatherbarrow, Elsevier-Biosoft) curve-calculation program based on a four-parameter logistical curve (Raab GM, 1983) and specially adapted to the prevailing conditions. The quantitative determination of antigen in soil or water samples within the context of ELISA is also carried out using the ENZFITTER program, the adaptation of the curve being based on standards that run on any microtitre plate.
^a) Inhibitor concentration that reduces the ELISA signal by 50% in
comparison with the control.
^b) (antigen conc. for 50% inhibition/concentration of the antigen
analog for 50% inhibition) × 100.

| I50 (inhibitor concentration that reduces the ELISA signal by 50% in comparison with the control) | cross-reactivity: (antigen conc. for 50% inhibition/concentration of the antigen analog for 50% inhibition) × 100 | cross-reactivity in words | SMILES |
| --- | --- | --- | --- |
| > 1000 ng/mL | < 0.1% |  | COC(=O)c1ccccc1S(=O)(=O)NC(=O)Nc1nc(OC(F)F)cc(OC(F)F)n1 [D] |
| > 1000 ng/mL | < 0.1% |  | COc1nc(C)nc(NC(=O)NS(=O)(=O)c2ccc(O)cc2OCCCl)n1 [A] |
| > 1000 ng/mL | < 0.1% | no cross-reactivity | COc1nc(C)nc(NC(=O)NS(=O)(=O)c2ccccc2OCCCl)n1 [B] |

| SMILES | I50 (inhibitor concentration that reduces the ELISA signal by 50% in comparison with the control) | cross-reactivity: (antigen conc. for 50% inhibition/concentration of the antigen analog for 50% inhibition) × 100 | cross-reactivity in words |
| --- | --- | --- | --- |
| COc1nc(C)nc(NC(=O)NS(=O)(=O)c2ccccc2CCC(F)(F)F)n1 [Compound of formula (II), N-[2-(3,3,3-trifluoropropyl)-phenylsulfonyl]-N'-(4-methoxy-6-methyl-1,3,5-triazin-2-yl)urea] | 0.8 ng/mL | 100% |  |
